The assay deals with MV-4-11 cells. The assay is described as follows: Gene expression microarray analysis (Affymetrix PrimeView) and GSEA. Format: cell-based, human. More on the design: RFU PODN (11730768_x_at) / Fold change /veh PODN (11730768_x_at) / RFU LINC00158 (11744669_a_at) / Fold change /veh LINC00158 (11744669_a_at) / RFU DUSP10 (11751237_a_at) / Fold change /veh DUSP10 (11751237_a_at) / RFU ID3 (11757404_x_at) / Fold change /veh ID3 (11757404_x_at) / RFU PLEKHG5 (11737974_s_at) / Fold change /veh PLEKHG5 (11737974_s_at) / RFU LRRC4B (11730491_at) / Fold change /veh LRRC4B (11730491_at) / RFU GIMAP4 (11747438_a_at) / Fold change /veh GIMAP4 (11747438_a_at) / RFU KRT8 (11758183_x_at) / Fold change /veh KRT8 (11758183_x_at) / RFU CNN1 (11734310_a_at) / Fold change /veh CNN1 (11734310_a_at) / RFU VPS37D (11726825_at) / Fold change /veh VPS37D (11726825_at) / RFU C10orf10 (11716522_x_at) / Fold change /veh C10orf10 (11716522_x_at) / RFU KIR2DL2 /// KIR2DL4 /// KIR2DL5A /// KIR2DL5B /// KIR2DS1 /// KIR2DS2 /// KIR2DS3 /// KIR2DS4 /// KIR3DL3 /// KIR3DL3 /// KIR3DS1 (11738374_at) / Fold change /veh KIR2DL2 /// KIR2DL4 /// KIR2DL5A /// KIR2DL5B /// KIR2DS1 /// KIR2DS2 /// KIR2DS3 /// KIR2DS4 /// KIR3DL3 /// KIR3DL3 /// KIR3DS1 (11738374_at) / RFU C1QL1 (11718748_at) / Fold change /veh C1QL1 (11718748_at) / RFU TMPRSS4 (11747572_a_at) / Fold change /veh TMPRSS4 (11747572_a_at) / RFU HAMP (11756126_x_at) / Fold change /veh HAMP (11756126_x_at) / RFU RNFT2 (11725882_a_at) / Fold change /veh RNFT2 (11725882_a_at) / RFU NR4A2 (11747474_a_at) / Fold change /veh NR4A2 (11747474_a_at) / RFU ABCC12 (11746883_a_at) / Fold change /veh ABCC12 (11746883_a_at) / RFU TMEM136 (11760407_x_at) / Fold change /veh TMEM136 (11760407_x_at) / RFU CLDN22 /// WWC2 (11732394_at) / Fold change /veh CLDN22 /// WWC2 (11732394_at) / RFU HLA-DPB1 (11760878_x_at) / Fold change /veh HLA-DPB1 (11760878_x_at) / RFU SPINT1 (11716480_a_at) / Fold change /veh SPINT1 (11716480_a_at) / RFU GAP43 (11754022_s_at) / Fold change /veh GAP43 (11754022_s_at) / RFU A4GNT (11735810_at) / Fold change /veh A4GNT (11735810_at) / RFU PRB3 (11715151_x_at) / Fold change /veh PRB3 (11715151_x_at) / RFU TUBB4B (11761932_at) / Fold change /veh TUBB4B (11761932_at) / RFU CAPN14 (11732068_a_at) / Fold change /veh CAPN14 (11732068_a_at) / RFU TMCC2 (11721928_a_at) / Fold change /veh TMCC2 (11721928_a_at) / RFU IRGQ (11745062_a_at) / Fold change /veh IRGQ (11745062_a_at) / RFU FAM174B (11720279_a_at) / Fold change /veh FAM174B (11720279_a_at) / RFU TMPRSS4 (11748680_a_at) / Fold change /veh TMPRSS4 (11748680_a_at) / RFU FAM212B (11763350_a_at) / Fold change /veh FAM212B (11763350_a_at) / RFU PLEKHG5 (11743358_a_at) / Fold change /veh PLEKHG5 (11743358_a_at) / RFU ZSCAN30 (11745921_a_at) / Fold change /veh ZSCAN30 (11745921_a_at) / RFU CMKLR1 (11741424_a_at) / Fold change /veh CMKLR1 (11741424_a_at) / RFU LOC101060620 /// MAPK8IP1 (11723275_at) / Fold change /veh LOC101060620 /// MAPK8IP1 (11723275_at) / RFU SPTSSB (11747773_x_at) / Fold change /veh SPTSSB (11747773_x_at) / RFU PRSS12 (11739890_at) / Fold change /veh PRSS12 (11739890_at) / RFU BIN1 (11741810_x_at) / Fold change /veh BIN1 (11741810_x_at) / RFU WNT11 (11732464_a_at) / Fold change /veh WNT11 (11732464_a_at) / RFU C10orf10 (11716521_a_at) / Fold change /veh C10orf10 (11716521_a_at) / RFU C5orf56 (11738089_at) / Fold change /veh C5orf56 (11738089_at) / RFU CYB561 (11721691_x_at) / Fold change /veh CYB561 (11721691_x_at) / RFU ANKRD19P (11752326_a_at) / Fold change /veh ANKRD19P (11752326_a_at) / RFU OR2T12 /// OR2T33 /// OR2T8 (11738714_s_at) / Fold change /veh OR2T12 /// OR2T33 /// OR2T8 (11738714_s_at) / RFU VCAN (11748164_a_at) / Fold change /veh VCAN (11748164_a_at) / RFU JSRP1 (11732532_at) / Fold change /veh JSRP1 (11732532_at) / RFU KRTAP10-11 (11738290_x_at) / Fold change /veh KRTAP10-11 (11738290_x_at) / RFU MYO3A (11730013_a_at) / Fold change /veh MYO3A (11730013_a_at) / RFU EBF3 (11725865_a_at) / Fold change /veh EBF3 (11725865_a_at) / RFU CAMK2N1 (11719241_x_at) / Fold change /veh CAMK2N1 (11719241_x_at) / RFU C5orf56 (11738088_a_at) / Fold change /veh C5orf56 (11738088_a_at) / RFU OLFML3 (11715873_a_at) / Fold change /veh OLFML3 (11715873_a_at) / RFU LOC100653217 /// NTM (11731650_a_at) / Fold change /veh LOC100653217 /// NTM (11731650_a_at) / RFU MAPK11 (11762145_a_at) / Fold change /veh MAPK11 (11762145_a_at) / RFU FIZ1 (11724087_x_at) / Fold change /veh FIZ1 (11724087_x_at) / RFU OASL (11726364_x_at) / Fold change /veh OASL (11726364_x_at) / RFU SOX15 (11748057_x_at) / Fold change /veh SOX15 (11748057_x_at) / RFU CD79A (11719716_a_at) / Fold change /veh CD79A (11719716_a_at) / RFU HIST1H1D (11736915_at) / Fold change /veh HIST1H1D (11736915_at) / RFU CASKIN2 (11723855_a_at) / Fold change /veh CASKIN2 (11723855_a_at) / RFU LOC730098 (11760151_x_at) / Fold change /veh LOC730098 (11760151_x_at) / RFU OR4N2 (11742367_at) / Fold change /veh OR4N2 (11742367_at) / RFU PRRT2 (11749266_a_at) / Fold change /veh PRRT2 (11749266_a_at) / RFU SNX32 (11753110_a_at) / Fold change /veh SNX32 (11753110_a_at) / RFU CDHR5 (11726645_a_at) / Fold change /veh CDHR5 (11726645_a_at) / RFU RCAN1 (11760418_a_at) / Fold change /veh RCAN1 (11760418_a_at) / RFU FAM167A (11723789_a_at) / Fold change /veh FAM167A (11723789_a_at) / RFU FAM26E (11764081_at) / Fold change /veh FAM26E (11764081_at) / RFU ISYNA1 (11749810_s_at) / Fold change /veh ISYNA1 (11749810_s_at) / RFU ACY1 (11761880_at) / Fold change /veh ACY1 (11761880_at) / RFU 11764098_at / Fold change /veh 11764098_at / RFU SAMD14 (11745864_x_at) / Fold change /veh SAMD14 (11745864_x_at) / RFU NPB (11741838_a_at) / Fold change /veh NPB (11741838_a_at) / RFU TMPRSS6 (11731388_a_at) / Fold change /veh TMPRSS6 (11731388_a_at) / RFU KRTAP10-2 (11738614_at) / Fold change /veh KRTAP10-2 (11738614_at) / RFU ARHGAP8 /// PRR5-ARHGAP8 (11727945_x_at) / Fold change /veh ARHGAP8 /// PRR5-ARHGAP8 (11727945_x_at) / RFU KRTAP5-7 /// NADSYN1 (11734609_at) / Fold change /veh KRTAP5-7 /// NADSYN1 (11734609_at) / RFU RASL12 (11751679_a_at) / Fold change /veh RASL12 (11751679_a_at) / RFU CDKN2B (11736163_a_at) / Fold change /veh CDKN2B (11736163_a_at) / RFU PRF1 (11729649_at) / Fold change /veh PRF1 (11729649_at) / RFU, ZNF638 /// ZNF638-IT1 / Fold change vs veh, ZNF638 /// ZNF638-IT1 / RFU, PANK3 / Fold change vs veh, PANK3 / RFU, SH3YL1 / Fold change vs veh, SH3YL1 / RFU, ZEB2 / Fold change vs veh, ZEB2 / RFU, NRIP1 / Fold change vs veh, NRIP1 / RFU, PTTG1IP / Fold change vs veh, PTTG1IP / RFU, CAPN2 / Fold change vs veh, CAPN2 / RFU, MED14 / Fold change vs veh, MED14 / RFU, SNORA58 / Fold change vs veh, SNORA58 / RFU, C1orf63 / Fold change vs veh, C1orf63 / RFU, LRRFIP1 / Fold change vs veh, LRRFIP1 / RFU, NDUFAF7 / Fold change vs veh, NDUFAF7 / RFU, SLC12A2 / Fold change vs veh, SLC12A2 / RFU, IBTK / Fold change vs veh, IBTK / RFU, ESF1 / Fold change vs veh, ESF1 / Fold change vs veh, TMEM50B / RFU, TAOK1 / Fold change vs veh, TAOK1 / RFU, ACBD3 / Fold change vs veh, ACBD3 / RFU, TMA16 / Fold change vs veh, TMA16 / RFU, RWDD3 / Fold change vs veh, RWDD3 / RFU, BCAT1 / Fold change vs veh, BCAT1 / RFU, EDEM3 / Fold change vs veh, EDEM3 / RFU, TMEM33 / Fold change vs veh, TMEM33 / RFU, WDR75 / Fold change vs veh, WDR75 / RFU, AHCTF1 / Fold change vs veh, AHCTF1 / RFU, TFRC / Fold change vs veh, TFRC / RFU, ZDHHC17 / Fold change vs veh, ZDHHC17 / RFU, NOM1 / Fold change vs veh, NOM1 / RFU, ARL8B / Fold change vs veh, ARL8B / RFU, ZBTB11 / Fold change vs veh, ZBTB11 / RFU, TAMM41 / Fold change vs veh, TAMM41 / RFU, KIAA1704 /// LOC100996395 / Fold change vs veh, KIAA1704 /// LOC100996395 / RFU, ING1 / Fold change vs veh, ING1 / RFU, TRMT61B / Fold change vs veh, TRMT61B / RFU, FUBP3 / Fold change vs veh, FUBP3 / RFU, TP53 / Fold change vs veh, TP53 / RFU, TNKS2 / Fold change vs veh, TNKS2 / RFU, ZFP14 / Fold change vs veh, ZFP14 / RFU, ACTR2 / Fold change vs veh, ACTR2 / RFU, PPP3R1 / Fold change vs veh, PPP3R1 / RFU, PIK3R1 / Fold change vs veh, PIK3R1 / RFU, HNRNPA1 / Fold change vs veh, HNRNPA1 / RFU, RNF170 / Fold change vs veh, RNF170 / RFU, ZNF28 / Fold change vs veh, ZNF28 / RFU, RNGTT / Fold change vs veh, RNGTT / RFU, OGT / Fold change vs veh, OGT / RFU, BRD1 / Fold change vs veh, BRD1 / RFU, MARS / Fold change vs veh, MARS / RFU, ZNF655 / Fold change vs veh, ZNF655 / RFU, FAHD1 / Fold change vs veh, FAHD1 / RFU, BDP1 / Fold change vs veh, BDP1 / RFU, LRRCC1 / Fold change vs veh, LRRCC1 / RFU, ARID1A / Fold change vs veh, ARID1A / RFU, ZNF146 / Fold change vs veh, ZNF146 / RFU, ZNF330 / Fold change vs veh, ZNF330 / RFU, GPN3 / Fold change vs veh, GPN3 / RFU, C9orf123 / Fold change vs veh, C9orf123 / RFU, N4BP2L2 / Fold change vs veh, N4BP2L2 / RFU, ARFIP1 / Fold change vs veh, ARFIP1 / RFU, FAM179B / Fold change vs veh, FAM179B / RFU, BCL10 / Fold change vs veh, BCL10 / RFU, UHRF1BP1L / Fold change vs veh, UHRF1BP1L / RFU, BET1 / Fold change vs veh, BET1 / RFU, CNOT2 / Fold change vs veh, CNOT2 / RFU, ZNF268 / Fold change vs veh, ZNF268 / Fold change vs veh, ZNF507 / RFU, DGCR2 / Fold change vs veh, DGCR2 / RFU, WDSUB1 / Fold change vs veh, WDSUB1 / Fold change vs veh, HSP90B1 /// MIR3652 / RFU, ADSS / Fold change vs veh, ADSS / RFU, GK / Fold change vs veh, GK / RFU, ZNF148 / Fold change vs veh, ZNF148 / RFU, TAF9 / Fold change vs veh, TAF9 / RFU, SLC1A5 / Fold change vs veh, SLC1A5 / RFU, SLMO2 / Fold change vs veh, SLMO2 / RFU, ABCC4 / Fold change vs veh, ABCC4 / RFU, LOC101060439 /// RAP1B / Fold change vs veh, LOC101060439 /// RAP1B / RFU, RFX7 / Fold change vs veh, RFX7 / RFU, GTPBP10 / Fold change vs veh, GTPBP10 / RFU, CNEP1R1 / Fold change vs veh, CNEP1R1 / RFU, BIVM-ERCC5 /// ERCC5 / Fold change vs veh, BIVM-ERCC5 /// ERCC5 / RFU, ILF3 / Fold change vs veh, ILF3 / RFU 11762660_at / Fold change /veh 11762660_at / RFU VCAN (11757783_s_at) / Fold change /veh VCAN (11757783_s_at) / RFU DDX43 (11728927_at) / Fold change /veh DDX43 (11728927_at) / RFU KRT8 (11758188_x_at) / Fold change /veh KRT8 (11758188_x_at) / RFU NKD1 (11759106_at) / Fold change /veh NKD1 (11759106_at) / RFU SRD5A1 (11742802_a_at) / Fold change /veh SRD5A1 (11742802_a_at) / RFU TPSAB1 /// TPSB2 (11721975_s_at) / Fold change /veh TPSAB1 /// TPSB2 (11721975_s_at) / RFU GSTM3 (11746129_a_at) / Fold change /veh GSTM3 (11746129_a_at) / RFU IL23R (11737362_x_at) / Fold change /veh IL23R (11737362_x_at) / RFU TMEM51 (11727254_a_at) / Fold change /veh TMEM51 (11727254_a_at) / RFU PIWIL2 (11732686_x_at) / Fold change /veh PIWIL2 (11732686_x_at) / RFU ORM1 (11744905_x_at) / Fold change /veh ORM1 (11744905_x_at) / RFU CCDC152 (11743942_at) / Fold change /veh CCDC152 (11743942_at) / RFU ECM1 (11717891_a_at) / Fold change /veh ECM1 (11717891_a_at) / RFU IL23R (11748794_a_at) / Fold change /veh IL23R (11748794_a_at) / RFU TNFAIP8L3 (11732012_x_at) / Fold change /veh TNFAIP8L3 (11732012_x_at) / RFU MBOAT4 (11741988_at) / Fold change /veh MBOAT4 (11741988_at) / RFU 11764193_at / Fold change /veh 11764193_at / RFU TMEM53 (11763286_at) / Fold change /veh TMEM53 (11763286_at) / RFU MAGEB2 (11727129_at) / Fold change /veh MAGEB2 (11727129_at) / RFU TMEM200A (11744735_a_at) / Fold change /veh TMEM200A (11744735_a_at) / RFU CCDC152 (11751479_a_at) / Fold change /veh CCDC152 (11751479_a_at) / RFU FAM211A (11726209_a_at) / Fold change /veh FAM211A (11726209_a_at) / RFU RGS16 (11746705_a_at) / Fold change /veh RGS16 (11746705_a_at) / RFU VCAN (11755009_s_at) / Fold change /veh VCAN (11755009_s_at) / RFU RHOB (11743442_s_at) / Fold change /veh RHOB (11743442_s_at) / RFU RGS16 (11720943_a_at) / Fold change /veh RGS16 (11720943_a_at) / RFU RGS16 (11720944_at) / Fold change /veh RGS16 (11720944_at) / RFU, VPS4B / Fold change vs veh, VPS4B / RFU, CREB1 / Fold change vs veh, CREB1 / RFU, DNAJC13 / Fold change vs veh, DNAJC13 / RFU, GNAQ / Fold change vs veh, GNAQ / RFU, CDK5R1 / Fold change vs veh, CDK5R1 / RFU, ZRANB3 / Fold change vs veh, ZRANB3 / RFU, CUL4A / Fold change vs veh, CUL4A / RFU, CCNY / Fold change vs veh, CCNY / RFU, UFL1 / Fold change vs veh, UFL1 / RFU, COG3 / Fold change vs veh, COG3 / RFU, DIAPH2 / Fold change vs veh, DIAPH2 / RFU, SKA2 / Fold change vs veh, SKA2 / RFU, AFF3 / Fold change vs veh, AFF3 / RFU, LMF1 / Fold change vs veh, LMF1 / RFU, IPO11 / Fold change vs veh, IPO11 / RFU, DFFB / Fold change vs veh, DFFB / RFU, FOXP1 / Fold change vs veh, FOXP1 / RFU, CARD8 / Fold change vs veh, CARD8 / RFU, STRN3 / Fold change vs veh, STRN3 / RFU, ADK / Fold change vs veh, ADK / RFU, RASSF2 / Fold change vs veh, RASSF2 / RFU, WIPF1 / Fold change vs veh, WIPF1 / RFU, LARP1B / Fold change vs veh, LARP1B / RFU, RASA1 / Fold change vs veh, RASA1 / RFU, RB1 / Fold change vs veh, RB1 / RFU, PPFIA1 / Fold change vs veh, PPFIA1 / RFU, MAT2A / Fold change vs veh, MAT2A / RFU, CCT5 / Fold change vs veh, CCT5 / RFU, WDR92 / Fold change vs veh, WDR92 / RFU, CUX1 / Fold change vs veh, CUX1 / RFU, TTC7A / Fold change vs veh, TTC7A / RFU, TMEM135 / Fold change vs veh, TMEM135 / RFU, DEPTOR / Fold change vs veh, DEPTOR / RFU, CPM / Fold change vs veh, CPM / RFU, DNAJB6 / Fold change vs veh, DNAJB6 / RFU, CACNA2D3 / Fold change vs veh, CACNA2D3 / RFU, DTX4 / Fold change vs veh, DTX4 / RFU, TFCP2 / Fold change vs veh, TFCP2 / RFU, GMCL1 /// GMCL1P1 / Fold change vs veh, GMCL1 /// GMCL1P1 / RFU, AEBP2 / Fold change vs veh, AEBP2 / RFU, SNHG1 /// SNORD22 /// SNORD25 /// SNORD26 /// SNORD27 /// SNORD28 /// SNORD29 /// SNORD31 / Fold change vs veh, SNHG1 /// SNORD22 /// SNORD25 /// SNORD26 /// SNORD27 /// SNORD28 /// SNORD29 /// SNORD31 / Fold change (Aza/veh), C12orf56 (ProbeSet 11735607_a_at) / Fold change (ACY-1035/veh), C12orf56 (ProbeSet 11735607_a_at) / Fold change (Aza/veh), FGFR1OP (ProbeSet 11751329_s_at) / Fold change (ACY-1035/veh), FGFR1OP (ProbeSet 11751329_s_at) / Fold change (Aza/veh), VPS36 (ProbeSet 11739960_a_at) / Fold change (ACY-1035/veh), VPS36 (ProbeSet 11739960_a_at) / RFU SYPL1 (11715823_x_at) / Fold change /veh SYPL1 (11715823_x_at) / RFU IGFBP7 (11715501_s_at) / Fold change /veh IGFBP7 (11715501_s_at) / RFU REEP3 (11722064_at) / Fold change /veh REEP3 (11722064_at) / RFU IGLL1 (11728026_x_at) / Fold change /veh IGLL1 (11728026_x_at): dose or concentration left out as unconfirmed. As to conditions: ProbeSet 11718701_a_at; LIST B.

In the case of `Nc1ncn([C@@H]2O[C@H](CO)[C@@H](O)[C@H]2O)c(=O)n1` [azacitidine], the “RFU, ARFIP1” value was 68.44 RFU.
